Laboratory results reported in patent US7279550B2, “Irreversible cysteine protease inhibitors of legumain” (Probiodrug AG, priority 2001, dated 2007).

Legend:
[1] = target: T1, legumain (Homo sapiens, UniProt Q99538); experiment: Fluorogenic continuous rate assay of legumain activity, substrate Z-Ala-Ala-Asn-AMC (kobs/[I]); format: biochemical; conditions: for kobs/[l] (second-order rate constant for the inactivation of legumain): substrate Z-Ala-Ala-Asn-AMC, 37° C. or 30° C., sodium citrate buffer, 1 mM dithiothreitol, 1 mM EDTA, approximate second-order inactivation constants
T1 sequence (Q99538 18-323): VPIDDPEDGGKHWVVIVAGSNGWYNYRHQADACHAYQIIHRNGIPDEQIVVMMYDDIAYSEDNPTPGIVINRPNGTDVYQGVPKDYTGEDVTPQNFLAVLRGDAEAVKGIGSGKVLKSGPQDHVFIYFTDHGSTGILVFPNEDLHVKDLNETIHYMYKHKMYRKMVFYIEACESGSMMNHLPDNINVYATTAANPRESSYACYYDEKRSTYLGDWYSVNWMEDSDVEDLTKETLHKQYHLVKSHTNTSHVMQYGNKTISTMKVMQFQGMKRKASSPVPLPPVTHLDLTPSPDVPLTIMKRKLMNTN
Procedure: The legumain activity was determined in a fluorogenic continuos rate assay using the substrate Z-Ala-Ala-Asn-AMC on a Kontron spectrofluorometer SFM25 (exitation 380; emission 460) equipped with a four cell changer and controlled by an IBM-compatible personal computer. The obtained data were analyzed with the software FLUCOL^(38). The assay were done at 37° C. or 30° C., using a sodium citrate buffer (39.5 mM citric acid/121 mM Na2HPO4) containing 1 mM dithiothreitol and 1 mM EDTA. Additionally, 0.1% (w/v) Chaps or 0.015% (w/v) Brij 35 was added.
The inhibition progress curves were analyzed using non-linear curve fitting software Prism Graph Pad to compute the kobs values. Approximate second-order inactivation constants (kobs/[I]) were calculated for all compounds.

[2] = target: T1, legumain; experiment: Determination of Ki-values, legumain, substrate Z-Ala-Ala-Asn-AMC; format: biochemical; conditions: HEPES pH 7.6, 30° C.; substrate 0.05, 0.1, 0.2 and 0.4 mM
Procedure: 100 μl inhibitor stock solution were mixed with 100 μl buffer (HEPES pH 7.6) and 50 μl substrate Z-Ala-Ala-Asn-AMC and preincubated at 30° C. Reaction was started by addition of 20 μl enzyme solution. Formation of the product AMC was measured on a Kontron spectrofluorometer SFM25 (exitation 380; emission 460) and slopes were calculated. Legumain activity was measured at final substrate concentrations of 0.05, 0.1, 0.2, and 0.4 mM and further 7 inhibitor concentrations covering the IC50 concentration. Calculations were performed using the GraFit 4.0.13 (Erithacus) Software.

kobs/[l] (second-order rate constant for the inactivation of legumain) [1]	Compound	also measured
<1 M⁻¹ s⁻¹	C/C(=C\[C@H](CC(N)=O)NC(=O)[C@H](C)NC(=O)[C@H](C)NC(=O)OCc1ccccc1)C(=O)O [Compound 11, (S)-(E)-4-[Cbz-L-Ala-L-Ala]amino-6-amino-2-methyl-6-oxo-2-hexenoic acid]	–
139088 M⁻¹ s⁻¹	CC(NC(=O)OCc1ccccc1)C(=O)NC(C)C(=O)NN(CC(N)=O)C(=O)CCl [Compound 18, 2-[2-(Cbz-L-Ala-L-Ala)-1-(chloroacetyl)hydrazino]acetamide]	second-order rate constant for the inactivation of legumain, fold higher than that of the Michael acceptor inhibitors ([1]; compared with the Michael acceptor inhibitors): approximately 200 fold
84000 M⁻¹ s⁻¹	C[C@H](NC(=O)OCc1ccccc1)C(=O)N[C@@H](C)C(=O)NN(CC(N)=O)C(=O)CBr [Compound 22, 2-[2-(Cbz-L-Ala-L-Ala)-1-(bromoacetyl)hydrazino]acetamide]	inhibition of legumain (in words) [1]: potent inhibitor

Continued, compound first:

Compound	kobs/[l] (second-order rate constant for the inactivation of legumain) [1]	also measured
COC(=O)/C=C/[C@H](CC(N)=O)NC(=O)[C@H](C)NC(=O)[C@H](C)NC(=O)OCc1ccccc1 [Compound 5, Methyl (S)-(E)-4-[Cbz-L-Ala-L-Ala]amino-6-amino-6-oxo-2-hexenoate]	543 M⁻¹ s⁻¹	–
CCOC(=O)/C=C/[C@H](CC(N)=O)NC(=O)[C@H](C)NC(=O)[C@H](C)NC(=O)OCc1ccccc1 [Compound 6, Ethyl (S)-(E)-4-[Cbz-L-Ala-L-Ala]amino-6-amino-6-oxo-2-hexenoate]	456 M⁻¹ s⁻¹	–
C=CCOC(=O)/C=C/[C@H](CC(N)=O)NC(=O)[C@H](C)NC(=O)[C@H](C)NC(=O)OCc1ccccc1 [Compound 7, Allyl (S)-(E)-4-[Cbz-L-Ala-L-Ala]amino-6-amino-6-oxo-2-hexenoate]	776 M⁻¹ s⁻¹	–
CC(NC(=O)OCc1ccccc1)C(=O)NC(C)C(=O)N[C@H](/C=C/C(=O)O)CC(N)=O (stereo partly drawn) [Compound 8, (S)-(E)-4-[Cbz-L-Ala-L-Ala]amino-6-amino-6-oxo-2-hexenoic acid]	4 M⁻¹ s⁻¹	–
COC(=O)/C(C)=C/[C@H](CC(N)=O)NC(=O)C(C)NC(=O)C(C)NC(=O)OCc1ccccc1 (stereo partly drawn) [Compound 9, Methyl (S)-(E)-4-[Cbz-L-Ala-L-Ala]amino-6-amino-2-methyl-6-oxo-2-hexenoate]	2 M⁻¹ s⁻¹	–
CCOC(=O)/C(C)=C/[C@H](CC(N)=O)NC(=O)C(C)NC(=O)C(C)NC(=O)OCc1ccccc1 (stereo partly drawn) [Compound 10, Ethyl (S)-(E)-4-[Cbz-L-Ala-L-Ala]amino-6-amino-2-methyl-6-oxo-2-hexenoate]	2 M⁻¹ s⁻¹	–
C[C@H](NC(=O)OCc1ccccc1)C(=O)N[C@@H](C)C(=O)N[C@@H](CC(N)=O)C(=O)NOC(=O)c1ccccc1 [Compound 20, [Cbz-L-Ala-L-Ala-L-Asn]-O-benzoylhydroxamate]	–	Ki [2]: 3.1 µM
C[C@H](NC(=O)OCc1ccccc1)C(=O)N[C@@H](C)C(=O)NN(CC(N)=O)C(=O)COC(=O)c1ccccc1 [Compound 24, 2-[2-(Cbz-L-Ala-L-Ala)-1-(benzoyloxyacetyl)hydrazino]acetamide]	13 M⁻¹ s⁻¹	inhibition of legumain (in words) [1]: only moderate inhibition
Diethyl [(S)-(E)-3-[Cbz-L-Ala-L-Ala]amino-5-amino-5-oxo-1-petenylphosphate [Compound 13]	<1 M⁻¹ s⁻¹	–
Methyl [(S)-(E)-3-[Cbz-L-Ala-L-Ala]amino-5-amino-5-oxo-1-petene]-sulfonate [Compound 12]	30 M⁻¹ s⁻¹	–
